{
  "source": "paper PMC5218480",
  "about": "(PLoS ONE, 2017)",
  "test_system": "MV-4-11 cells",
  "assay": "Gene expression microarray analysis (Affymetrix PrimeView) and GSEA",
  "format": "cell-based, human",
  "design": "RFU PODN (11730768_x_at) / Fold change /veh PODN (11730768_x_at) / RFU LINC00158 (11744669_a_at) / Fold change /veh LINC00158 (11744669_a_at) / RFU DUSP10 (11751237_a_at) / Fold change /veh DUSP10 (11751237_a_at) / RFU ID3 (11757404_x_at) / Fold change /veh ID3 (11757404_x_at) / RFU PLEKHG5 (11737974_s_at) / Fold change /veh PLEKHG5 (11737974_s_at) / RFU LRRC4B (11730491_at) / Fold change /veh LRRC4B (11730491_at) / RFU GIMAP4 (11747438_a_at) / Fold change /veh GIMAP4 (11747438_a_at) / RFU KRT8 (11758183_x_at) / Fold change /veh KRT8 (11758183_x_at) / RFU CNN1 (11734310_a_at) / Fold change /veh CNN1 (11734310_a_at) / RFU VPS37D (11726825_at) / Fold change /veh VPS37D (11726825_at) / RFU C10orf10 (11716522_x_at) / Fold change /veh C10orf10 (11716522_x_at) / RFU KIR2DL2 /// KIR2DL4 /// KIR2DL5A /// KIR2DL5B /// KIR2DS1 /// KIR2DS2 /// KIR2DS3 /// KIR2DS4 /// KIR3DL3 /// KIR3DL3 /// KIR3DS1 (11738374_at) / Fold change /veh KIR2DL2 /// KIR2DL4 /// KIR2DL5A /// KIR2DL5B /// KIR2DS1 /// KIR2DS2 /// KIR2DS3 /// KIR2DS4 /// KIR3DL3 /// KIR3DL3 /// KIR3DS1 (11738374_at) / RFU C1QL1 (11718748_at) / Fold change /veh C1QL1 (11718748_at) / RFU TMPRSS4 (11747572_a_at) / Fold change /veh TMPRSS4 (11747572_a_at) / RFU HAMP (11756126_x_at) / Fold change /veh HAMP (11756126_x_at) / RFU RNFT2 (11725882_a_at) / Fold change /veh RNFT2 (11725882_a_at) / RFU NR4A2 (11747474_a_at) / Fold change /veh NR4A2 (11747474_a_at) / RFU ABCC12 (11746883_a_at) / Fold change /veh ABCC12 (11746883_a_at) / RFU TMEM136 (11760407_x_at) / Fold change /veh TMEM136 (11760407_x_at) / RFU CLDN22 /// WWC2 (11732394_at) / Fold change /veh CLDN22 /// WWC2 (11732394_at) / RFU HLA-DPB1 (11760878_x_at) / Fold change /veh HLA-DPB1 (11760878_x_at) / RFU SPINT1 (11716480_a_at) / Fold change /veh SPINT1 (11716480_a_at) / RFU GAP43 (11754022_s_at) / Fold change /veh GAP43 (11754022_s_at) / RFU A4GNT (11735810_at) / Fold change /veh A4GNT (11735810_at) / RFU PRB3 (11715151_x_at) / Fold change /veh PRB3 (11715151_x_at) / RFU TUBB4B (11761932_at) / Fold change /veh TUBB4B (11761932_at) / RFU CAPN14 (11732068_a_at) / Fold change /veh CAPN14 (11732068_a_at) / RFU TMCC2 (11721928_a_at) / Fold change /veh TMCC2 (11721928_a_at) / RFU IRGQ (11745062_a_at) / Fold change /veh IRGQ (11745062_a_at) / RFU FAM174B (11720279_a_at) / Fold change /veh FAM174B (11720279_a_at) / RFU TMPRSS4 (11748680_a_at) / Fold change /veh TMPRSS4 (11748680_a_at) / RFU FAM212B (11763350_a_at) / Fold change /veh FAM212B (11763350_a_at) / RFU PLEKHG5 (11743358_a_at) / Fold change /veh PLEKHG5 (11743358_a_at) / RFU ZSCAN30 (11745921_a_at) / Fold change /veh ZSCAN30 (11745921_a_at) / RFU CMKLR1 (11741424_a_at) / Fold change /veh CMKLR1 (11741424_a_at) / RFU LOC101060620 /// MAPK8IP1 (11723275_at) / Fold change /veh LOC101060620 /// MAPK8IP1 (11723275_at) / RFU SPTSSB (11747773_x_at) / Fold change /veh SPTSSB (11747773_x_at) / RFU PRSS12 (11739890_at) / Fold change /veh PRSS12 (11739890_at) / RFU BIN1 (11741810_x_at) / Fold change /veh BIN1 (11741810_x_at) / RFU WNT11 (11732464_a_at) / Fold change /veh WNT11 (11732464_a_at) / RFU C10orf10 (11716521_a_at) / Fold change /veh C10orf10 (11716521_a_at) / RFU C5orf56 (11738089_at) / Fold change /veh C5orf56 (11738089_at) / RFU CYB561 (11721691_x_at) / Fold change /veh CYB561 (11721691_x_at) / RFU ANKRD19P (11752326_a_at) / Fold change /veh ANKRD19P (11752326_a_at) / RFU OR2T12 /// OR2T33 /// OR2T8 (11738714_s_at) / Fold change /veh OR2T12 /// OR2T33 /// OR2T8 (11738714_s_at) / RFU VCAN (11748164_a_at) / Fold change /veh VCAN (11748164_a_at) / RFU JSRP1 (11732532_at) / Fold change /veh JSRP1 (11732532_at) / RFU KRTAP10-11 (11738290_x_at) / Fold change /veh KRTAP10-11 (11738290_x_at) / RFU MYO3A (11730013_a_at) / Fold change /veh MYO3A (11730013_a_at) / RFU EBF3 (11725865_a_at) / Fold change /veh EBF3 (11725865_a_at) / RFU CAMK2N1 (11719241_x_at) / Fold change /veh CAMK2N1 (11719241_x_at) / RFU C5orf56 (11738088_a_at) / Fold change /veh C5orf56 (11738088_a_at) / RFU OLFML3 (11715873_a_at) / Fold change /veh OLFML3 (11715873_a_at) / RFU LOC100653217 /// NTM (11731650_a_at) / Fold change /veh LOC100653217 /// NTM (11731650_a_at) / RFU MAPK11 (11762145_a_at) / Fold change /veh MAPK11 (11762145_a_at) / RFU FIZ1 (11724087_x_at) / Fold change /veh FIZ1 (11724087_x_at) / RFU OASL (11726364_x_at) / Fold change /veh OASL (11726364_x_at) / RFU SOX15 (11748057_x_at) / Fold change /veh SOX15 (11748057_x_at) / RFU CD79A (11719716_a_at) / Fold change /veh CD79A (11719716_a_at) / RFU HIST1H1D (11736915_at) / Fold change /veh HIST1H1D (11736915_at) / RFU CASKIN2 (11723855_a_at) / Fold change /veh CASKIN2 (11723855_a_at) / RFU LOC730098 (11760151_x_at) / Fold change /veh LOC730098 (11760151_x_at) / RFU OR4N2 (11742367_at) / Fold change /veh OR4N2 (11742367_at) / RFU PRRT2 (11749266_a_at) / Fold change /veh PRRT2 (11749266_a_at) / RFU SNX32 (11753110_a_at) / Fold change /veh SNX32 (11753110_a_at) / RFU CDHR5 (11726645_a_at) / Fold change /veh CDHR5 (11726645_a_at) / RFU RCAN1 (11760418_a_at) / Fold change /veh RCAN1 (11760418_a_at) / RFU FAM167A (11723789_a_at) / Fold change /veh FAM167A (11723789_a_at) / RFU FAM26E (11764081_at) / Fold change /veh FAM26E (11764081_at) / RFU ISYNA1 (11749810_s_at) / Fold change /veh ISYNA1 (11749810_s_at) / RFU ACY1 (11761880_at) / Fold change /veh ACY1 (11761880_at) / RFU 11764098_at / Fold change /veh 11764098_at / RFU SAMD14 (11745864_x_at) / Fold change /veh SAMD14 (11745864_x_at) / RFU NPB (11741838_a_at) / Fold change /veh NPB (11741838_a_at) / RFU TMPRSS6 (11731388_a_at) / Fold change /veh TMPRSS6 (11731388_a_at) / RFU KRTAP10-2 (11738614_at) / Fold change /veh KRTAP10-2 (11738614_at) / RFU ARHGAP8 /// PRR5-ARHGAP8 (11727945_x_at) / Fold change /veh ARHGAP8 /// PRR5-ARHGAP8 (11727945_x_at) / RFU KRTAP5-7 /// NADSYN1 (11734609_at) / Fold change /veh KRTAP5-7 /// NADSYN1 (11734609_at) / RFU RASL12 (11751679_a_at) / Fold change /veh RASL12 (11751679_a_at) / RFU CDKN2B (11736163_a_at) / Fold change /veh CDKN2B (11736163_a_at) / RFU PRF1 (11729649_at) / Fold change /veh PRF1 (11729649_at) / RFU, ZNF638 /// ZNF638-IT1 / Fold change vs veh, ZNF638 /// ZNF638-IT1 / RFU, PANK3 / Fold change vs veh, PANK3 / RFU, SH3YL1 / Fold change vs veh, SH3YL1 / RFU, ZEB2 / Fold change vs veh, ZEB2 / RFU, NRIP1 / Fold change vs veh, NRIP1 / RFU, PTTG1IP / Fold change vs veh, PTTG1IP / RFU, CAPN2 / Fold change vs veh, CAPN2 / RFU, MED14 / Fold change vs veh, MED14 / RFU, SNORA58 / Fold change vs veh, SNORA58 / RFU, C1orf63 / Fold change vs veh, C1orf63 / RFU, LRRFIP1 / Fold change vs veh, LRRFIP1 / RFU, NDUFAF7 / Fold change vs veh, NDUFAF7 / RFU, SLC12A2 / Fold change vs veh, SLC12A2 / RFU, IBTK / Fold change vs veh, IBTK / RFU, ESF1 / Fold change vs veh, ESF1 / Fold change vs veh, TMEM50B / RFU, TAOK1 / Fold change vs veh, TAOK1 / RFU, ACBD3 / Fold change vs veh, ACBD3 / RFU, TMA16 / Fold change vs veh, TMA16 / RFU, RWDD3 / Fold change vs veh, RWDD3 / RFU, BCAT1 / Fold change vs veh, BCAT1 / RFU, EDEM3 / Fold change vs veh, EDEM3 / RFU, TMEM33 / Fold change vs veh, TMEM33 / RFU, WDR75 / Fold change vs veh, WDR75 / RFU, AHCTF1 / Fold change vs veh, AHCTF1 / RFU, TFRC / Fold change vs veh, TFRC / RFU, ZDHHC17 / Fold change vs veh, ZDHHC17 / RFU, NOM1 / Fold change vs veh, NOM1 / RFU, ARL8B / Fold change vs veh, ARL8B / RFU, ZBTB11 / Fold change vs veh, ZBTB11 / RFU, TAMM41 / Fold change vs veh, TAMM41 / RFU, KIAA1704 /// LOC100996395 / Fold change vs veh, KIAA1704 /// LOC100996395 / RFU, ING1 / Fold change vs veh, ING1 / RFU, TRMT61B / Fold change vs veh, TRMT61B / RFU, FUBP3 / Fold change vs veh, FUBP3 / RFU, TP53 / Fold change vs veh, TP53 / RFU, TNKS2 / Fold change vs veh, TNKS2 / RFU, ZFP14 / Fold change vs veh, ZFP14 / RFU, ACTR2 / Fold change vs veh, ACTR2 / RFU, PPP3R1 / Fold change vs veh, PPP3R1 / RFU, PIK3R1 / Fold change vs veh, PIK3R1 / RFU, HNRNPA1 / Fold change vs veh, HNRNPA1 / RFU, RNF170 / Fold change vs veh, RNF170 / RFU, ZNF28 / Fold change vs veh, ZNF28 / RFU, RNGTT / Fold change vs veh, RNGTT / RFU, OGT / Fold change vs veh, OGT / RFU, BRD1 / Fold change vs veh, BRD1 / RFU, MARS / Fold change vs veh, MARS / RFU, ZNF655 / Fold change vs veh, ZNF655 / RFU, FAHD1 / Fold change vs veh, FAHD1 / RFU, BDP1 / Fold change vs veh, BDP1 / RFU, LRRCC1 / Fold change vs veh, LRRCC1 / RFU, ARID1A / Fold change vs veh, ARID1A / RFU, ZNF146 / Fold change vs veh, ZNF146 / RFU, ZNF330 / Fold change vs veh, ZNF330 / RFU, GPN3 / Fold change vs veh, GPN3 / RFU, C9orf123 / Fold change vs veh, C9orf123 / RFU, N4BP2L2 / Fold change vs veh, N4BP2L2 / RFU, ARFIP1 / Fold change vs veh, ARFIP1 / RFU, FAM179B / Fold change vs veh, FAM179B / RFU, BCL10 / Fold change vs veh, BCL10 / RFU, UHRF1BP1L / Fold change vs veh, UHRF1BP1L / RFU, BET1 / Fold change vs veh, BET1 / RFU, CNOT2 / Fold change vs veh, CNOT2 / RFU, ZNF268 / Fold change vs veh, ZNF268 / Fold change vs veh, ZNF507 / RFU, DGCR2 / Fold change vs veh, DGCR2 / RFU, WDSUB1 / Fold change vs veh, WDSUB1 / Fold change vs veh, HSP90B1 /// MIR3652 / RFU, ADSS / Fold change vs veh, ADSS / RFU, GK / Fold change vs veh, GK / RFU, ZNF148 / Fold change vs veh, ZNF148 / RFU, TAF9 / Fold change vs veh, TAF9 / RFU, SLC1A5 / Fold change vs veh, SLC1A5 / RFU, SLMO2 / Fold change vs veh, SLMO2 / RFU, ABCC4 / Fold change vs veh, ABCC4 / RFU, LOC101060439 /// RAP1B / Fold change vs veh, LOC101060439 /// RAP1B / RFU, RFX7 / Fold change vs veh, RFX7 / RFU, GTPBP10 / Fold change vs veh, GTPBP10 / RFU, CNEP1R1 / Fold change vs veh, CNEP1R1 / RFU, BIVM-ERCC5 /// ERCC5 / Fold change vs veh, BIVM-ERCC5 /// ERCC5 / RFU, ILF3 / Fold change vs veh, ILF3 / RFU 11762660_at / Fold change /veh 11762660_at / RFU VCAN (11757783_s_at) / Fold change /veh VCAN (11757783_s_at) / RFU DDX43 (11728927_at) / Fold change /veh DDX43 (11728927_at) / RFU KRT8 (11758188_x_at) / Fold change /veh KRT8 (11758188_x_at) / RFU NKD1 (11759106_at) / Fold change /veh NKD1 (11759106_at) / RFU SRD5A1 (11742802_a_at) / Fold change /veh SRD5A1 (11742802_a_at) / RFU TPSAB1 /// TPSB2 (11721975_s_at) / Fold change /veh TPSAB1 /// TPSB2 (11721975_s_at) / RFU GSTM3 (11746129_a_at) / Fold change /veh GSTM3 (11746129_a_at) / RFU IL23R (11737362_x_at) / Fold change /veh IL23R (11737362_x_at) / RFU TMEM51 (11727254_a_at) / Fold change /veh TMEM51 (11727254_a_at) / RFU PIWIL2 (11732686_x_at) / Fold change /veh PIWIL2 (11732686_x_at) / RFU ORM1 (11744905_x_at) / Fold change /veh ORM1 (11744905_x_at) / RFU CCDC152 (11743942_at) / Fold change /veh CCDC152 (11743942_at) / RFU ECM1 (11717891_a_at) / Fold change /veh ECM1 (11717891_a_at) / RFU IL23R (11748794_a_at) / Fold change /veh IL23R (11748794_a_at) / RFU TNFAIP8L3 (11732012_x_at) / Fold change /veh TNFAIP8L3 (11732012_x_at) / RFU MBOAT4 (11741988_at) / Fold change /veh MBOAT4 (11741988_at) / RFU 11764193_at / Fold change /veh 11764193_at / RFU TMEM53 (11763286_at) / Fold change /veh TMEM53 (11763286_at) / RFU MAGEB2 (11727129_at) / Fold change /veh MAGEB2 (11727129_at) / RFU TMEM200A (11744735_a_at) / Fold change /veh TMEM200A (11744735_a_at) / RFU CCDC152 (11751479_a_at) / Fold change /veh CCDC152 (11751479_a_at) / RFU FAM211A (11726209_a_at) / Fold change /veh FAM211A (11726209_a_at) / RFU RGS16 (11746705_a_at) / Fold change /veh RGS16 (11746705_a_at) / RFU VCAN (11755009_s_at) / Fold change /veh VCAN (11755009_s_at) / RFU RHOB (11743442_s_at) / Fold change /veh RHOB (11743442_s_at) / RFU RGS16 (11720943_a_at) / Fold change /veh RGS16 (11720943_a_at) / RFU RGS16 (11720944_at) / Fold change /veh RGS16 (11720944_at) / RFU, VPS4B / Fold change vs veh, VPS4B / RFU, CREB1 / Fold change vs veh, CREB1 / RFU, DNAJC13 / Fold change vs veh, DNAJC13 / RFU, GNAQ / Fold change vs veh, GNAQ / RFU, CDK5R1 / Fold change vs veh, CDK5R1 / RFU, ZRANB3 / Fold change vs veh, ZRANB3 / RFU, CUL4A / Fold change vs veh, CUL4A / RFU, CCNY / Fold change vs veh, CCNY / RFU, UFL1 / Fold change vs veh, UFL1 / RFU, COG3 / Fold change vs veh, COG3 / RFU, DIAPH2 / Fold change vs veh, DIAPH2 / RFU, SKA2 / Fold change vs veh, SKA2 / RFU, AFF3 / Fold change vs veh, AFF3 / RFU, LMF1 / Fold change vs veh, LMF1 / RFU, IPO11 / Fold change vs veh, IPO11 / RFU, DFFB / Fold change vs veh, DFFB / RFU, FOXP1 / Fold change vs veh, FOXP1 / RFU, CARD8 / Fold change vs veh, CARD8 / RFU, STRN3 / Fold change vs veh, STRN3 / RFU, ADK / Fold change vs veh, ADK / RFU, RASSF2 / Fold change vs veh, RASSF2 / RFU, WIPF1 / Fold change vs veh, WIPF1 / RFU, LARP1B / Fold change vs veh, LARP1B / RFU, RASA1 / Fold change vs veh, RASA1 / RFU, RB1 / Fold change vs veh, RB1 / RFU, PPFIA1 / Fold change vs veh, PPFIA1 / RFU, MAT2A / Fold change vs veh, MAT2A / RFU, CCT5 / Fold change vs veh, CCT5 / RFU, WDR92 / Fold change vs veh, WDR92 / RFU, CUX1 / Fold change vs veh, CUX1 / RFU, TTC7A / Fold change vs veh, TTC7A / RFU, TMEM135 / Fold change vs veh, TMEM135 / RFU, DEPTOR / Fold change vs veh, DEPTOR / RFU, CPM / Fold change vs veh, CPM / RFU, DNAJB6 / Fold change vs veh, DNAJB6 / RFU, CACNA2D3 / Fold change vs veh, CACNA2D3 / RFU, DTX4 / Fold change vs veh, DTX4 / RFU, TFCP2 / Fold change vs veh, TFCP2 / RFU, GMCL1 /// GMCL1P1 / Fold change vs veh, GMCL1 /// GMCL1P1 / RFU, AEBP2 / Fold change vs veh, AEBP2 / RFU, SNHG1 /// SNORD22 /// SNORD25 /// SNORD26 /// SNORD27 /// SNORD28 /// SNORD29 /// SNORD31 / Fold change vs veh, SNHG1 /// SNORD22 /// SNORD25 /// SNORD26 /// SNORD27 /// SNORD28 /// SNORD29 /// SNORD31 / Fold change (Aza/veh), C12orf56 (ProbeSet 11735607_a_at) / Fold change (ACY-1035/veh), C12orf56 (ProbeSet 11735607_a_at) / Fold change (Aza/veh), FGFR1OP (ProbeSet 11751329_s_at) / Fold change (ACY-1035/veh), FGFR1OP (ProbeSet 11751329_s_at) / Fold change (Aza/veh), VPS36 (ProbeSet 11739960_a_at) / Fold change (ACY-1035/veh), VPS36 (ProbeSet 11739960_a_at) / RFU SYPL1 (11715823_x_at) / Fold change /veh SYPL1 (11715823_x_at) / RFU IGFBP7 (11715501_s_at) / Fold change /veh IGFBP7 (11715501_s_at) / RFU REEP3 (11722064_at) / Fold change /veh REEP3 (11722064_at) / RFU IGLL1 (11728026_x_at) / Fold change /veh IGLL1 (11728026_x_at): dose or concentration left out as unconfirmed",
  "settings": "MV-4-11 cells, 48 hours",
  "data": [
    {"smiles": "Nc1ncn([C@@H]2O[C@H](CO)[C@@H](O)[C@H]2O)c(=O)n1", "note": "[azacitidine]", "values": [
      {"measurement": "RFU KRTAP10-11 (11738290_x_at)", "value": 43.89, "unit": "RFU"}
    ]}
  ]
}
